# PubChem BioAssay (NCI)
#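 48-hour exposure; five concentrations; linearly interpolated endpoints. At the TGI there is no net growth.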
# How the values were obtained:
# Test in all cases: DTP human tumour cell line panel, 48 h
# 786-0 renal = test system: 786-0 renal
# A498 renal = test system: A498 renal
# A549 NSCLC = test system: A549 NSCLC
# ACHN renal = test system: ACHN renal
# CAKI-1 renal = test system: CAKI-1 renal
# CCRF-CEM leukemia = test system: CCRF-CEM leukemia
# COLO 205 colon = test system: COLO 205 colon
# DLD-1 colon = test system: DLD-1 colon
# DMS 273 small cell lung = test system: DMS 273 small cell lung
# EKVX NSCLC = test system: EKVX NSCLC
# HCC-2998 colon = test system: HCC-2998 colon
# HCT-116 colon = test system: HCT-116 colon
# HCT-15 colon = test system: HCT-15 colon
# HL-60(TB) leukemia = test system: HL-60(TB) leukemia
# HOP-18 NSCLC = test system: HOP-18 NSCLC
# HOP-62 NSCLC = test system: HOP-62 NSCLC
# HOP-92 NSCLC = test system: HOP-92 NSCLC
# HT29 colon = test system: HT29 colon
# IGROV1 ovarian = test system: IGROV1 ovarian
# K-562 leukemia = test system: K-562 leukemia
# KM12 colon = test system: KM12 colon
# KM20L2 colon = test system: KM20L2 colon
# LOX IMVI melanoma = test system: LOX IMVI melanoma
# LXFL 529 NSCLC = test system: LXFL 529 NSCLC
# M14 melanoma = test system: M14 melanoma
# M19-MEL melanoma = test system: M19-MEL melanoma
# MALME-3M melanoma = test system: MALME-3M melanoma
# MOLT-4 leukemia = test system: MOLT-4 leukemia
# NCI-H226 lung = test system: NCI-H226 lung
# NCI-H23 lung = test system: NCI-H23 lung
# NCI-H460 lung = test system: NCI-H460 lung
# NCI-H522 lung = test system: NCI-H522 lung
# OVCAR-3 ovarian = test system: OVCAR-3 ovarian
# OVCAR-4 ovarian = test system: OVCAR-4 ovarian
# OVCAR-5 ovarian = test system: OVCAR-5 ovarian
# OVCAR-8 ovarian = test system: OVCAR-8 ovarian
# RPMI-8226 leukemia = test system: RPMI-8226 leukemia
# RXF 393 renal = test system: RXF 393 renal
# RXF-631 renal = test system: RXF-631 renal
# SF-268 CNS = test system: SF-268 CNS
# SF-295 CNS = test system: SF-295 CNS
# SF-539 CNS = test system: SF-539 CNS
# SK-MEL-2 melanoma = test system: SK-MEL-2 melanoma
# SK-MEL-28 melanoma = test system: SK-MEL-28 melanoma
# SK-MEL-5 melanoma = test system: SK-MEL-5 melanoma
# SK-OV-3 ovarian = test system: SK-OV-3 ovarian
# SN12C renal = test system: SN12C renal
# SNB-19 CNS = test system: SNB-19 CNS
# SNB-75 CNS = test system: SNB-75 CNS
# SNB-78 CNS = test system: SNB-78 CNS
# SR leukemia = test system: SR leukemia
# SW-620 colon = test system: SW-620 colon
# TK-10 renal = test system: TK-10 renal
# U251 CNS = test system: U251 CNS
# UACC-257 melanoma = test system: UACC-257 melanoma
# UACC-62 melanoma = test system: UACC-62 melanoma
# UO-31 renal = test system: UO-31 renal
# XF 498 CNS = test system: XF 498 CNS
# DMS 114 small cell lung = test system: DMS 114 small cell lung
smiles,measurement,setting,value
CCOc1ccc(NC(=O)CC2C(=O)Nc3ccccc3S2=O)cc1 (stereo not given),TGI,786-0 renal,> 76.6 µM
same,TGI,A498 renal,> 78.5 µM
same,TGI,A549 NSCLC,> 100 µM
same,TGI,ACHN renal,> 86.7 µM
same,TGI,CAKI-1 renal,> 92.9 µM
same,TGI,CCRF-CEM leukemia,> 100 µM
same,TGI,COLO 205 colon,> 100 µM
same,TGI,DLD-1 colon,> 100 µM
same,TGI,DMS 273 small cell lung,> 100 µM
same,TGI,EKVX NSCLC,> 46.4 µM
same,TGI,HCC-2998 colon,> 100 µM
same,TGI,HCT-116 colon,> 100 µM
same,TGI,HCT-15 colon,> 100 µM
same,TGI,HL-60(TB) leukemia,> 100 µM
same,TGI,HOP-18 NSCLC,> 100 µM
same,TGI,HOP-62 NSCLC,> 100 µM
same,TGI,HOP-92 NSCLC,> 70.6 µM
same,TGI,HT29 colon,> 100 µM
same,TGI,IGROV1 ovarian,> 100 µM
same,TGI,K-562 leukemia,> 100 µM
same,TGI,KM12 colon,> 100 µM
same,TGI,KM20L2 colon,> 46.4 µM
same,TGI,LOX IMVI melanoma,> 100 µM
same,TGI,LXFL 529 NSCLC,> 100 µM
same,TGI,M14 melanoma,> 100 µM
same,TGI,M19-MEL melanoma,> 100 µM
same,TGI,MALME-3M melanoma,> 100 µM
same,TGI,MOLT-4 leukemia,> 100 µM
same,TGI,NCI-H226 lung,> 86.7 µM
same,TGI,NCI-H23 lung,> 100 µM
same,TGI,NCI-H460 lung,> 100 µM
same,TGI,NCI-H522 lung,> 100 µM
same,TGI,OVCAR-3 ovarian,> 78.7 µM
same,TGI,OVCAR-4 ovarian,> 70.2 µM
same,TGI,OVCAR-5 ovarian,> 100 µM
same,TGI,OVCAR-8 ovarian,> 85.8 µM
same,TGI,RPMI-8226 leukemia,> 100 µM
same,TGI,RXF 393 renal,66.9 µM
same,TGI,RXF-631 renal,> 100 µM
same,TGI,SF-268 CNS,> 100 µM
same,TGI,SF-295 CNS,> 100 µM
same,TGI,SF-539 CNS,> 100 µM
same,TGI,SK-MEL-2 melanoma,> 100 µM
same,TGI,SK-MEL-28 melanoma,> 100 µM
same,TGI,SK-MEL-5 melanoma,> 100 µM
same,TGI,SK-OV-3 ovarian,> 100 µM
same,TGI,SN12C renal,> 100 µM
same,TGI,SNB-19 CNS,> 89.3 µM
same,TGI,SNB-75 CNS,50.6 µM
same,TGI,SNB-78 CNS,> 100 µM
same,TGI,SR leukemia,> 88.5 µM
same,TGI,SW-620 colon,> 100 µM
same,TGI,TK-10 renal,> 96.2 µM
same,TGI,U251 CNS,> 75.4 µM
same,TGI,UACC-257 melanoma,> 100 µM
same,TGI,UACC-62 melanoma,> 46.4 µM
same,TGI,UO-31 renal,> 83.1 µM
same,TGI,XF 498 CNS,74.4 µM
N#CC1=C(Cl)NC(Cl)=C(C#N)C1c1ccc(Cl)cc1,TGI,786-0 renal,29.2 µM
same,TGI,A498 renal,81.3 µM
same,TGI,A549 NSCLC,37.1 µM
same,TGI,ACHN renal,34.2 µM
same,TGI,CAKI-1 renal,43.9 µM
same,TGI,CCRF-CEM leukemia,65.8 µM
same,TGI,COLO 205 colon,30.3 µM
same,TGI,DLD-1 colon,32 µM
same,TGI,DMS 114 small cell lung,28.8 µM
same,TGI,DMS 273 small cell lung,31 µM
same,TGI,EKVX NSCLC,39.4 µM
same,TGI,HCC-2998 colon,33.2 µM
same,TGI,HCT-116 colon,34.4 µM
same,TGI,HCT-15 colon,29 µM
same,TGI,HL-60(TB) leukemia,45.4 µM
same,TGI,HOP-18 NSCLC,33.6 µM
same,TGI,HOP-62 NSCLC,33.1 µM
same,TGI,HOP-92 NSCLC,30.5 µM
same,TGI,HT29 colon,30.1 µM
same,TGI,IGROV1 ovarian,32.9 µM
same,TGI,K-562 leukemia,28.5 µM
same,TGI,KM12 colon,33 µM
same,TGI,KM20L2 colon,39.3 µM
same,TGI,LOX IMVI melanoma,29.6 µM
same,TGI,LXFL 529 NSCLC,29.9 µM
same,TGI,M14 melanoma,30.5 µM
same,TGI,MALME-3M melanoma,38.7 µM
same,TGI,MOLT-4 leukemia,39.3 µM
same,TGI,NCI-H226 lung,44.7 µM
same,TGI,NCI-H23 lung,32.8 µM
same,TGI,NCI-H460 lung,31.5 µM
same,TGI,NCI-H522 lung,25.8 µM
same,TGI,OVCAR-3 ovarian,27 µM
same,TGI,OVCAR-5 ovarian,> 100 µM
same,TGI,OVCAR-8 ovarian,29.7 µM
same,TGI,RPMI-8226 leukemia,37.5 µM
same,TGI,RXF 393 renal,32.9 µM
same,TGI,RXF-631 renal,29.5 µM
same,TGI,SF-268 CNS,33 µM
same,TGI,SF-295 CNS,53.9 µM
same,TGI,SF-539 CNS,33.2 µM
same,TGI,SK-MEL-2 melanoma,27.5 µM
same,TGI,SK-MEL-28 melanoma,41.4 µM
same,TGI,SK-MEL-5 melanoma,30.7 µM
same,TGI,SK-OV-3 ovarian,31.7 µM
same,TGI,SN12C renal,30.9 µM
same,TGI,SNB-19 CNS,31 µM
same,TGI,SNB-75 CNS,28.3 µM
same,TGI,SNB-78 CNS,72.5 µM
same,TGI,SR leukemia,44.1 µM
same,TGI,SW-620 colon,26.3 µM
same,TGI,TK-10 renal,32.5 µM
same,TGI,U251 CNS,29.8 µM
same,TGI,UACC-257 melanoma,34.7 µM
same,TGI,UACC-62 melanoma,30.5 µM
same,TGI,UO-31 renal,30.8 µM
same,TGI,XF 498 CNS,27.4 µM
